# Results reported in ChEMBL document CHEMBL1142181, “Quantitative immunoassay to measure plasma and intracellular atazanavir levels: analysis of drug accumulation in cultured T cells” (Antimicrob Agents Chemother, 2007).
# What was measured:
# Type in all cases: ADME, cell-based
# [1] = Increase in accumulation of the drug in CEM CCL19 cells in presence of 50 uM Probenecid relative to control; settings: human, ccrf-cem
# PBMC [2] = test: Intracellular drug level in human PBMC at 20 ug/ml after 24 hrs
# [3] = Ratio of intracellular drug level to extracellular drug level in CEM CCL19 cells at 0.2 ug/ml after 24 hrs; settings: human, ccrf-cem
# [4] = Intracellular drug level in CEM CCL19 cells at 20 ug/ml after 24 hrs; settings: human, ccrf-cem
# [5] = Increase in accumulation of the drug in CEM CCL19 cells in presence of 50 uM Dipyridamole relative to control; settings: human, ccrf-cem
# [6] = Increase in accumulation of the drug in CEM CCL19 cells in presence of 24 uM Efavirenz relative to control; settings: human, ccrf-cem
# [7] = Ratio of intracellular drug level to extracellular drug level in CEM CCL19 cells at 20 ug/ml after 24 hrs; settings: human, ccrf-cem
# [8] = Intracellular drug level in CEM CCL19 cells at 0.2 ug/ml after 24 hrs; settings: human, ccrf-cem
# PBMC [9] = test: Ratio of intracellular drug level to extracellular drug level in human PBMC at 2 ug/ml after 24 hrs
# PBMC [10] = test: Intracellular drug level in human PBMC at 0.2 ug/ml after 24 hrs
# [11] = Increase in accumulation of the drug in CEM CCL19 cells in presence of 50 uM Verapamil relative to control; settings: human, ccrf-cem
# [12] = Decrease in accumulation of the drug in CEM CCL19 cells in presence of 28 uM Nevirapine relative to control; parameters: scale not given: the % may be the effect or the level left; settings: human, ccrf-cem
# PBMC [13] = test: Ratio of intracellular drug level to extracellular drug level in human PBMC at 0.2 ug/ml after 24 hrs
# [14] = Intracellular drug level in CEM CCL19 cells at 2 ug/ml after 24 hrs; settings: human, ccrf-cem
# PBMC [15] = test: Ratio of intracellular drug level to extracellular drug level in human PBMC at 20 ug/ml after 24 hrs
# PBMC [16] = test: Intracellular drug level in human PBMC at 2 ug/ml after 24 hrs
# [17] = Ratio of intracellular drug level to extracellular drug level in CEM CCL19 cells at 2 ug/ml after 24 hrs; settings: human, ccrf-cem
compound,measurement,setting,value
COC(=O)N[C@H](C(=O)N[C@@H](Cc1ccccc1)[C@@H](O)CN(Cc1ccc(-c2ccccn2)cc1)NC(=O)[C@@H](NC(=O)OC)C(C)(C)C)C(C)(C)C [ATAZANAVIR],Activity,[1],25%
same,Drug uptake,PBMC [2],12.048 µg/mL
same,Ratio,[3],0.44
same,Drug uptake,[4],0.8423 µg/mL
same,Activity,[5],125%
same,Activity,[6],125%
same,Ratio,[7],0.04
same,Drug uptake,[8],0.0887 µg/mL
same,Ratio,PBMC [9],2.7
same,Drug uptake,PBMC [10],3.838 µg/mL
same,Activity,[11],70%
same,Activity,[12],50%
same,Ratio,PBMC [13],19.2
same,Drug uptake,[14],0.2049 µg/mL
same,Ratio,PBMC [15],0.602
same,Drug uptake,PBMC [16],5.409 µg/mL
same,Ratio,[17],0.1
